This assay deals with T1, His-TEV-AtPPO1 ΔcTP V002 (SEQ ID NO: 373) (Arabidopsis thaliana, UniProt P55826, L479M/S305L/Y426V).
T1 construct: with cTPs removed; made in house; host or cells: E. coli BL21 (DE3), His GraviTrap, partially purified
T1 sequence (P55826 with tags, fused parts or gaps S305L/Y426V/L479M): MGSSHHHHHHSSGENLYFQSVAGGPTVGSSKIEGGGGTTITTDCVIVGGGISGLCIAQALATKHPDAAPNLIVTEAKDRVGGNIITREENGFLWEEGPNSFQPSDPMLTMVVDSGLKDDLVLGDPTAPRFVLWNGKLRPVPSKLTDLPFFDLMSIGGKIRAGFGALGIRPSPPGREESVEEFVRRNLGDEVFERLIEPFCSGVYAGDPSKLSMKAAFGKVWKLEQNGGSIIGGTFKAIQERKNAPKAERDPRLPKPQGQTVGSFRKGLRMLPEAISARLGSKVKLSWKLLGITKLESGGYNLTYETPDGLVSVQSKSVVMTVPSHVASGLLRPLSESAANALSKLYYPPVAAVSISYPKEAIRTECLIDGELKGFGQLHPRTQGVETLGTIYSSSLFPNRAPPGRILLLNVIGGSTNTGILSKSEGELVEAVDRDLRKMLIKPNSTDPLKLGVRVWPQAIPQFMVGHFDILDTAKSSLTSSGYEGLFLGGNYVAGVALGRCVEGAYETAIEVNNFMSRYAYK
The assay is described as follows: activity rate of PPO variant in in vitro assay. In kind it is biochemical. Conditions: role: substrate; 1 uM protoporphyrinogen IX; no inhibitor. From the text:
A pET24 plasmid containing a DNA sequence encoding variants of AtPPO1 derived from Arabidopsis thaliana with cTPs removed and both a 6×His tag and TEV protease cleavage tag added at the N-terminus, codon-optimised for expression in E. coli, and under control of a T7 promoter, was synthesised by Twist Bioscience. The following variants were synthesised: WT AtPPO1 (SEQ ID NO: 370), AtPPO1 L479M (SEQ ID NO: 371), AtPPO1 L479N (SEQ ID NO: 372), AtPPO1 S305L Y426V (SEQ ID NO: 374) and AtPPO1 S305L Y426V L479M (SEQ ID NO: 373). This plasmid was expressed in E. coli BL21 (DE3) with 50 μg/mL kanamycin selection. 10 mL of overnight cultures grown at 37° C. were used to inoculate 1 L AIM (AIM-Terrific Broth Base including Trace elements, Formedium) in 2 L shake flasks. Cultures were grown at 37° C., 200 rpm for 3 hours and then overnight at 26° C. Cells were harvested centrifugation. 5-15 g of cell pellet was lysed in and resuspended in ratio of 1:1.5 in lysis buffer (20 mM Tris pH8, 500 mM sodium chloride, 10% glycerol, 1× complete Protease EDTA-free Inhibitor Tablet (Roche), 10 mM imidazole). The resuspension was sonicated at 75% using 10 cycles of 30 seconds, 40 seconds off. After sonication Triton X-100 was added to the lysates at a final concentration of 0.5%. The lysates were centrifuged at 20,000 rpm for 25 min at 4° C. Cleared lysates were loaded on His GraviTrap (Cytiva) columns, washed with 20 mL of lysis buffer and eluted in elution buffer (20 mM Tris pH8, 500 mM sodium chloride, 10% glycerol, 200 mM imidazole, 0.03% (v/v) Triton X-100). The eluate was desalted on a PD10 column and 2.5-3.2 mL was collected. Protein concentration was measured and calculated using the absorbance at 280 nm. Extracts were diluted 1 in 4 and 10 uL was analysed by SDS PAGE.
Partially purified Protoporphyrinogen Oxidase enzymes were assayed for activity using fluorescence adapted from the method of Shepherd & Dailey (Anal Biochem. 2005 344(1) 115-121). The assay was performed in black 384 well plates with a clear bottom and the total volume of the reaction mixture was 91 ul. The final assay mixture contained 100 mM K2HPO4 pH7.2, 1 mM Na2EDTA, 5 mM DTT, 20% glycerol (v/v), 0.05% Tween 20 (v/v), 1.1% DMSO (v/v), 1 uM protoporphyrinogen IX and 1.5 nM enzyme. Compounds were dissolved in DMSO at 1 mM and a 4-fold serial dilution carried out to give 8 rates. 1 ul was added to the assay mixture. This gave final compound concentrations of 11, 2.7, 0.69, 0.17, 0.04, 0.01, 0.002, 0.0007 uM. Enzyme and inhibitor were preincubated for 5 minutes prior to starting the reaction with the addition of the substrate. […] IC50s were calculated using GraphPad Prism 7.05 nonlinear regression (Table 6). Each compound was tested in duplicate.

Regarding `C=Cc1c2[nH]c(c1C)Cc1[nH]c(c(CCC(=O)O)c1C)Cc1[nH]c(c(C)c1CCC(=O)O)Cc1[nH]c(c(C)c1C=C)C2` [protoporphyrinogen IX], the Rate amounted to 7.6 rfu second^−1 pmole^−1.

The values are drawn from patent publication US20260297542A1, “HERBICIDE RESISTANT PLANTS” (SYNGENTA CROP PROTECTION AG, priority 2023, published 2026).
